Data as given in ChEMBL document CHEMBL1153072, “Synthesis and structure-activity relationship of dicationic diaryl ethers as novel potent anti-MRSA and anti-VRE agents” (2009).
Values after ≈ are worked out from the molar mass of the structure shown.

Columns and labels:
Type in all cases: functional
Bacillus cereus = assay: Antibacterial activity against Bacillus cereus ATCC 11778
Enterococcus faecium = assay: Antibacterial activity against vancomycin-resistant Enterococcus faecium ATCC 700221
Clostridium perfringens = assay: Antibacterial activity against Clostridium perfringens ATCC 10388
Enterococcus faecalis = assay: Antibacterial activity against vancomycin-resistant Enterococcus faecalis ATCC 51575
Staphylococcus aureus [1] = assay: Antibacterial activity against methicillin-resistant Staphylococcus aureus ATCC 33591
Streptococcus pneumoniae = assay: Antibacterial activity against Streptococcus pneumoniae ATCC 6301
Bacillus subtilis = assay: Antibacterial activity against Bacillus subtilis ATCC 23857
[2] = system: Staphylococcus epidermidis; assay: Antibacterial activity against Staphylococcus epidermidis ATCC 12228
Candida albicans = assay: Antifungal activity against Candida albicans ATCC 90028
Staphylococcus aureus [3] = assay: Antibacterial activity against Staphylococcus aureus ATCC 29213
Staphylococcus aureus [4] = assay: Antibacterial activity against multidrug resistant Staphylococcus aureus BAA-39
[5] = system: Staphylococcus epidermidis; assay: Antibacterial activity against methicillin-resistant Staphylococcus epidermidis ATCC 51625
Bacteroides fragilis = assay: Antibacterial activity against […] ATCC 23745

Compound: CC1CC(C)CN(C(=N)c2ccc3[nH]c(-c4ccc(Oc5ccc(-c6nc7cc(C(=N)N8CC(C)CC(C)C8)ccc7[nH]6)cc5)cc4)nc3c2)C1 (stereo not given)
- MIC (Bacillus cereus): 1 µg/mL (≈ 1.47 µM)
- MIC (Enterococcus faecium): 0.5 µg/mL (≈ 0.737 µM)
- MIC (Clostridium perfringens): 2 µg/mL (≈ 2.95 µM)
- MIC (Enterococcus faecalis): 1 µg/mL (≈ 1.47 µM)
- MIC (Staphylococcus aureus [1]): 0.25 µg/mL (≈ 0.368 µM)
- MIC (Streptococcus pneumoniae): 0.5 µg/mL (≈ 0.737 µM)
- MIC (Bacillus subtilis): 0.25 µg/mL (≈ 0.368 µM)
- MIC [2]: 0.25 µg/mL (≈ 0.368 µM)
- MIC (Candida albicans): 8 µg/mL (≈ 11.8 µM)
- MIC (Staphylococcus aureus [3]): 0.5 µg/mL (≈ 0.737 µM)
- MIC (Staphylococcus aureus [4]): 0.5 µg/mL (≈ 0.737 µM)
- MIC [5]: 0.5 µg/mL (≈ 0.737 µM)
- MIC (Bacteroides fragilis): 4 µg/mL (≈ 5.89 µM)

Compound: N=C(c1ccc2[nH]c(-c3ccc(Oc4ccc(-c5nc6cc(C(=N)N7CCOCC7)ccc6[nH]5)cc4)cc3)nc2c1)N1CCOCC1
- MIC (Bacillus cereus): 0.12 µg/mL (≈ 0.191 µM)
- MIC (Enterococcus faecium): 0.5 µg/mL (≈ 0.798 µM)
- MIC (Clostridium perfringens): 2 µg/mL (≈ 3.19 µM)
- MIC (Enterococcus faecalis): 0.5 µg/mL (≈ 0.798 µM)
- MIC (Staphylococcus aureus [1]): 0.5 µg/mL (≈ 0.798 µM)
- MIC (Streptococcus pneumoniae): 0.5 µg/mL (≈ 0.798 µM)
- MIC (Bacillus subtilis): 0.5 µg/mL (≈ 0.798 µM)
- MIC [2]: 0.25 µg/mL (≈ 0.399 µM)
- MIC (Candida albicans): 16 µg/mL (≈ 25.5 µM)
- MIC (Staphylococcus aureus [3]): 1 µg/mL (≈ 1.6 µM)
- MIC (Staphylococcus aureus [4]): 0.5 µg/mL (≈ 0.798 µM)
- MIC [5]: 0.5 µg/mL (≈ 0.798 µM)
- MIC (Bacteroides fragilis): 8 µg/mL (≈ 12.8 µM)

Compound: N=C(c1ccc2[nH]c(-c3ccc(Oc4ccc(-c5nc6cc(C(=N)N7CCCCCC7)ccc6[nH]5)cc4)cc3)nc2c1)N1CCCCCC1
- MIC (Bacillus cereus): 0.5 µg/mL (≈ 0.768 µM)
- MIC (Enterococcus faecium): 0.5 µg/mL (≈ 0.768 µM)
- MIC (Clostridium perfringens): 2 µg/mL (≈ 3.07 µM)
- MIC (Enterococcus faecalis): 0.5 µg/mL (≈ 0.768 µM)
- MIC (Staphylococcus aureus [1]): 0.25 µg/mL (≈ 0.384 µM)
- MIC (Streptococcus pneumoniae): 0.12 µg/mL (≈ 0.184 µM)
- MIC (Bacillus subtilis): 0.25 µg/mL (≈ 0.384 µM)
- MIC [2]: 0.12 µg/mL (≈ 0.184 µM)
- MIC (Candida albicans): 8 µg/mL (≈ 12.3 µM)
- MIC (Staphylococcus aureus [3]): 0.25 µg/mL (≈ 0.384 µM)
- MIC (Staphylococcus aureus [4]): 0.25 µg/mL (≈ 0.384 µM)
- MIC [5]: 0.25 µg/mL (≈ 0.384 µM)
- MIC (Bacteroides fragilis): 4 µg/mL (≈ 6.15 µM)

Compound: N=C(NC1CCCC1)c1ccc2[nH]c(-c3ccc(Oc4ccc(-c5nc6cc(C(=N)NC7CCCC7)ccc6[nH]5)cc4)cc3)nc2c1
- MIC (Bacillus cereus): < 0.06 µg/mL
- MIC (Enterococcus faecium): < 0.06 µg/mL
- MIC (Clostridium perfringens): 0.25 µg/mL (≈ 0.401 µM)
- MIC (Enterococcus faecalis): 0.25 µg/mL (≈ 0.401 µM)
- MIC (Staphylococcus aureus [1]): 0.5 µg/mL (≈ 0.803 µM)
- MIC (Streptococcus pneumoniae): < 0.06 µg/mL
- MIC (Bacillus subtilis): < 0.06 µg/mL
- MIC [2]: 0.12 µg/mL (≈ 0.193 µM)
- MIC (Candida albicans): 2 µg/mL (≈ 3.21 µM)
- MIC (Staphylococcus aureus [3]): 0.25 µg/mL (≈ 0.401 µM)
- MIC (Staphylococcus aureus [4]): 0.5 µg/mL (≈ 0.803 µM)
- MIC [5]: 0.12 µg/mL (≈ 0.193 µM)
- MIC (Bacteroides fragilis): 32 µg/mL (≈ 51.4 µM)

Compound: CC(C)NC(=N)c1ccc2[nH]c(-c3ccc(Oc4ccc(-c5nc6cc(C(=N)NC(C)C)ccc6[nH]5)nc4)cc3)nc2c1
- MIC (Bacillus cereus): 0.12 µg/mL (≈ 0.21 µM)
- MIC (Enterococcus faecium): ≤ 0.06 µg/mL
- MIC (Clostridium perfringens): 0.5 µg/mL (≈ 0.875 µM)
- MIC (Enterococcus faecalis): 0.12 µg/mL (≈ 0.21 µM)
- MIC (Staphylococcus aureus [1]): 0.5 µg/mL (≈ 0.875 µM)
- MIC (Streptococcus pneumoniae): ≤ 0.06 µg/mL
- MIC (Bacillus subtilis): ≤ 0.06 µg/mL
- MIC [2]: 0.12 µg/mL (≈ 0.21 µM)
- MIC (Candida albicans): 4 µg/mL (≈ 7 µM)
- MIC (Staphylococcus aureus [3]): 0.5 µg/mL (≈ 0.875 µM)
- MIC (Staphylococcus aureus [4]): 0.5 µg/mL (≈ 0.875 µM)
- MIC [5]: 0.12 µg/mL (≈ 0.21 µM)
- MIC (Bacteroides fragilis): 32 µg/mL (≈ 56 µM)

Compound: CCN1CCN(C(=N)c2ccc3[nH]c(-c4ccc(Oc5ccc(-c6nc7cc(C(=N)N8CCN(CC)CC8)ccc7[nH]6)cc5)cc4)nc3c2)CC1
- MIC (Bacillus cereus): 0.5 µg/mL (≈ 0.734 µM)
- MIC (Enterococcus faecium): 1 µg/mL (≈ 1.47 µM)
- MIC (Clostridium perfringens): 16 µg/mL (≈ 23.5 µM)
- MIC (Enterococcus faecalis): 1 µg/mL (≈ 1.47 µM)
- MIC (Staphylococcus aureus [1]): 1 µg/mL (≈ 1.47 µM)
- MIC (Streptococcus pneumoniae): 0.5 µg/mL (≈ 0.734 µM)
- MIC (Bacillus subtilis): 0.5 µg/mL (≈ 0.734 µM)
- MIC [2]: 0.5 µg/mL (≈ 0.734 µM)
- MIC (Candida albicans): 32 µg/mL (≈ 47 µM)
- MIC (Staphylococcus aureus [3]): 1 µg/mL (≈ 1.47 µM)
- MIC (Staphylococcus aureus [4]): 1 µg/mL (≈ 1.47 µM)
- MIC [5]: 0.5 µg/mL (≈ 0.734 µM)
- MIC (Bacteroides fragilis): 16 µg/mL (≈ 23.5 µM)

Compound: CC(C)NC(=N)c1ccc2[nH]c(-c3ccc(Oc4ccc(-c5nc6cc(C(=N)NC(C)C)ccc6[nH]5)cc4Cl)cc3)nc2c1
- MIC (Bacillus cereus): 0.12 µg/mL (≈ 0.198 µM)
- MIC (Enterococcus faecium): ≤ 0.06 µg/mL
- MIC (Clostridium perfringens): 0.5 µg/mL (≈ 0.826 µM)
- MIC (Enterococcus faecalis): 0.25 µg/mL (≈ 0.413 µM)
- MIC (Staphylococcus aureus [1]): 0.25 µg/mL (≈ 0.413 µM)
- MIC (Streptococcus pneumoniae): ≤ 0.06 µg/mL
- MIC (Bacillus subtilis): 0.12 µg/mL (≈ 0.198 µM)
- MIC [2]: ≤ 0.06 µg/mL
- MIC (Candida albicans): 1 µg/mL (≈ 1.65 µM)
- MIC (Staphylococcus aureus [3]): 0.25 µg/mL (≈ 0.413 µM)
- MIC (Staphylococcus aureus [4]): 0.25 µg/mL (≈ 0.413 µM)
- MIC [5]: ≤ 0.06 µg/mL
- MIC (Bacteroides fragilis): 16 µg/mL (≈ 26.4 µM)

Compound: N=C(c1ccc2[nH]c(-c3ccc(Oc4ccc(-c5nc6cc(C(=N)N7CCCC7)ccc6[nH]5)cc4)cc3)nc2c1)N1CCCC1
- MIC (Bacillus cereus): 0.12 µg/mL (≈ 0.202 µM)
- MIC (Enterococcus faecium): < 0.06 µg/mL
- MIC (Clostridium perfringens): 0.5 µg/mL (≈ 0.841 µM)
- MIC (Enterococcus faecalis): 0.25 µg/mL (≈ 0.42 µM)
- MIC (Staphylococcus aureus [1]): 0.25 µg/mL (≈ 0.42 µM)
- MIC (Streptococcus pneumoniae): < 0.06 µg/mL
- MIC (Bacillus subtilis): < 0.06 µg/mL
- MIC [2]: 0.12 µg/mL (≈ 0.202 µM)
- MIC (Candida albicans): 4 µg/mL (≈ 6.73 µM)
- MIC (Staphylococcus aureus [3]): 0.25 µg/mL (≈ 0.42 µM)
- MIC (Staphylococcus aureus [4]): 0.5 µg/mL (≈ 0.841 µM)
- MIC [5]: 0.12 µg/mL (≈ 0.202 µM)
- MIC (Bacteroides fragilis): 2 µg/mL (≈ 3.36 µM)

Compound: CC(C)NC(=N)c1ccc2[nH]c(-c3ccc(Oc4ccc(-c5nc6cc(C(=N)NC(C)C)ccc6[nH]5)c(C(F)(F)F)c4)cc3)nc2c1
- MIC (Bacillus cereus): 0.12 µg/mL (≈ 0.188 µM)
- MIC (Enterococcus faecium): ≤ 0.06 µg/mL
- MIC (Clostridium perfringens): 0.25 µg/mL (≈ 0.391 µM)
- MIC (Enterococcus faecalis): 0.12 µg/mL (≈ 0.188 µM)
- MIC (Staphylococcus aureus [1]): 0.25 µg/mL (≈ 0.391 µM)
- MIC (Streptococcus pneumoniae): ≤ 0.06 µg/mL
- MIC (Bacillus subtilis): ≤ 0.06 µg/mL
- MIC [2]: ≤ 0.06 µg/mL
- MIC (Candida albicans): 4 µg/mL (≈ 6.26 µM)
- MIC (Staphylococcus aureus [3]): 0.5 µg/mL (≈ 0.783 µM)
- MIC (Staphylococcus aureus [4]): 0.5 µg/mL (≈ 0.783 µM)
- MIC [5]: 0.12 µg/mL (≈ 0.188 µM)
- MIC (Bacteroides fragilis): 8 µg/mL (≈ 12.5 µM)

Compound: CN[C@H](CC(C)C)C(=O)N[C@H]1C(=O)N[C@@H](CC(N)=O)C(=O)N[C@H]2C(=O)N[C@H]3C(=O)N[C@H](C(=O)N[C@H](C(=O)O)c4cc(O)cc(O)c4-c4cc3ccc4O)[C@H](O)c3ccc(c(Cl)c3)Oc3cc2cc(c3O[C@@H]2O[C@H](CO)[C@@H](O)[C@H](O)[C@H]2O[C@H]2C[C@](C)(N)[C@H](O)[C@H](C)O2)Oc2ccc(cc2Cl)[C@H]1O [VANCOMYCIN]
- MIC (Bacillus cereus): ≤ 1 µg/mL
- MIC (Enterococcus faecium): > 64 µg/mL
- MIC (Clostridium perfringens): 0.12 µg/mL (≈ 0.0828 µM)
- MIC (Enterococcus faecalis): > 64 µg/mL
- MIC (Streptococcus pneumoniae): 1 µg/mL (≈ 0.69 µM)
- MIC (Bacillus subtilis): 0.12 µg/mL (≈ 0.0828 µM)
- MIC (Candida albicans): > 32 µg/mL
- MIC (Bacteroides fragilis): 4 µg/mL (≈ 2.76 µM)
